The test system of test [1] is carious tissue in caries infected tooth slices. Kind of test: Staining of caries infected tooth slices with colours, then washing with MQ water, NaCl and NaOH. The conditions noted are these: for staining of the tooth slice after NaCl and NaOH (Day 4): after NaCl 1 M and NaOH 0.5 M over night, visible light, UV or fluorescence microscopy; for kind of binding to carious tissue in infected teeth (conclusion): concluded from staining after NaCl and NaOH washes.
Method: This experiment aimed to see if the added colours SEEK, Acid red 1, Lucifer Yellow, a combination of Lucifer Yellow and Acid red 1, or 5-(2-2-hydrazinyl-2-oxoethylthio)acetamido)-2-(3-hydroxy-6-oxo-6H-xanthen-9-yl)benzoic acid, Alexa Fluor® 594 and Alexa 350 bind to the surface of caries or not, after excavation down to a clinically caries free denoted surface. Experiments were performed during 4 days.
Whole caries infected tooth was added to an ortho acryl gel, which after hardening was used as a holder prior to sawing (saw of brand Zaw Micro Tone, German). Slices, having a thickness of 150 μm, were left over night in each colour to be tested (Day one). On the second day, the colours were washed out by rinsing the slices with MQ water and the teeth sections were photographed under either a microscope (6.7×; visible light), in UV (no microscope) or under a fluorescence microscope (100×). Thereafter, an aqueous salt solution (NaCl, 1 M) was added to the slices and incubated over night. On the third day the slices were washed with MQ water and thereafter the same detection procedures were used as described above. Finally the tooth slices were exposed to an aqueous solution of NaOH (0.5 M) over night. The washing and detection path were then repeated as described previously (Day 4).

The subject of test [2] is carious dentin tissue. Kind of test: Rinsing of carious dentin tissue labelled with a dye.
Test [3] has as its system carious dentin tissue of a pre molar tooth. The experiment in a line: Staining of a pre molar tooth cavity with Alexa 594 and removal with Carisolv and hand instrument. As to the method: Carious dentin tissue of a pre molar tooth was treated with Carisolv® to obtain a cavity and subsequently stained with an aqueous solution of the hydrazine derivative Alexa 594.
The concentration of the aqueous solution of the hydrazine derivative Alexa 594 was 15-50 mM. […] Carisolv® was added to the cavity and excavation took place with a hand instrument from Mediteam Dental AB to reach a carious free level. […] A dentist performed tactile control of this surface and confirmed that the surface was free of caries. […] The slightly stained surface was subjected to treatment with Carisolv® followed by excavation with a hand instrument. […] It was concluded that a hydrazine derivative such as Alexa 594 can be used in combination with a chemical means for carious dentin tissue such as Carisolv® for selective detection and removal of carious dentin tissue.

For test [4] the test system is unchanged. The experiment in a line: Staining of a pre molar tooth with Alexa 594 and removal with a dentist's drill. The conditions noted are these: 15-50 mM aqueous solution, drilling and staining repeated several times. The protocol:
Carious dentin tissue of a pre molar tooth stained with an aqueous solution of the hydrazine derivative Alexa 594 in a concentration of 15-50 mM was subjected to mechanical treatment by a dentist's drill until no staining could be visually detected. […] The stained surface was subjected to drilling until no staining could be visually detected. A dentist examined the surface visually and with a tactile instrument and concluded that the surface was free of caries. […] Again, drilling of the stained surface took place until no staining could be observed. […] Drilling and staining as described above in this example was repeated several times. […] It was concluded that selective detection and removal of carious dentin tissue using a hydrazine derivative in combination with a dentist's drill was not possible. […] This is in contrast to the successful selective detection and removal of carious dentin tissue using a hydrazine derivative in combination with a chemical means for treatment of carious dentin tissue as described in Example 5.

Test [5] has as its system healthy dentin tissue. Kind of test: TOF-SIMS of healthy dentin tissue treated with Lucifer Yellow. The conditions noted are these: positive mass spectra, treated similar to untreated.
The subject of test [6] is healthy dentin tissue. The experiment in a line: FTIR of healthy dentin tissue treated with Lucifer Yellow. The arrangement: species or system human. The note with it: Lucifer Yellow 13 mM aqueous, overnight, no peak at 1740 cm−1 in any sample. The source says: (§1) Extracted permanent human teeth with no previous dental restorations were selected due to their severe carious tissue status and analysed with FTIR within one week after extraction. The outermost part of the carious dental lesions was removed. The remaining dental carious tissue was divided into two layers; one outer layer with discoloured, soft and infected dental carious tissue and one inner layer that was excavated down to the observed uncoloured hard surface of the remaining healthy dentin controlled by tactile procedures.
(§2) Healthy dentin tissue and carious dentin tissue from the innermost layer were collected. This healthy dentin tissue sample and carious dentin tissue sample were then each divided into three samples.
The healthy dentin tissue sample (26 mg) was divided and treated as follows. […] Fluorescence of bounded hydrazine derivate Lucifer Yellow was checked by a UV lamp. […] The third sample, hereinafter denominated sample S3, (7 mg) and the last procedure was treated with NaBH4 (0.5 M in ethanol) and washed with concentrated ethanol to reduce aldehydes and ketones before the addition of an aqueous solution of the hydrazine derivate Lucifer Yellow (13 mM), repeated rinsing with purified water before dried and analysed.
(§3) Thus, in total 6 samples (three from the healthy dentin tissue and three from the carious dentin tissue) were analysed with FTIR within one week after extraction. […]

Test [7] relates to carious dentin tissue. The experiment in a line: TOF-SIMS of carious dentin tissue treated with Lucifer Yellow. The protocol:
FTIR-ATR and TOF-SIMS analyses were performed on a sample group consisting of carious tissue inner most layers selected and estimated with an exactness of a working dentist. Samples were pooled from 4-6 teeth of inner layer of carious tissue (37 mg). The pooled sample was divided into two subgroups where one was exposed to the hydrazine derivate Lucifer Yellow and further analysed with TOF-SIMS and the other only analysed with FTIR-ATR. An aqueous solution of the hydrazine derivate Lucifer Yellow (1.8 mM) was added to the inner layer carious tissue (19 mg) and after 1 hour exposure washed with an aqueous solution of NaOH (0.5 M) and purified water before dried over vacuum. Events prolonged under a couple of hours from extraction to excavation to the drying and milling of the substances. Both FTIR-ATR and TOF-SIMS followed. FTIR-ATR was performed as described in Example 3 above. […] Each sample was attached to double side tape and analysed with a TOF-SIMS instrument (TOF-SIMS IV, CAMECA/IONTOF, GmbH, Germany). Positive secondary ion mass spectra were recorded from different areas of the sample at a size of […] and separated in a mass analyser and next compared with known mass spectra from the Ion Spec application (IonTof, GmbH, Germany, ver. 4.1) linked with the TOF-SIMS instrument. Negative secondary ion mass spectra were also recorded but gave no further information. […]

The subject of test [8] is carious dentin tissue. Kind of test: FTIR of carious dentin tissue treated with Lucifer Yellow. The arrangement: species or system human.
Text: as §1, §2
The healthy dentin tissue sample (26 mg) was divided and treated as follows. […] Fluorescence of bounded hydrazine derivate Lucifer Yellow was checked by a UV lamp. […] The third sample, hereinafter denominated sample S3, (7 mg) and the last procedure was treated with NaBH4 (0.5 M in ethanol) and washed with concentrated ethanol to reduce aldehydes and ketones before the addition of an aqueous solution of the hydrazine derivate Lucifer Yellow (13 mM), repeated rinsing with purified water before dried and analysed. […]
as §3

“Also recorded” adds a separate entry of the source.

Regarding `NNC(=O)CSCC(=O)Nc1ccc(-c2c3ccc(=O)cc-3oc3cc(O)ccc23)c(C(=O)O)c1` [5-(2-2-hydrazinyl-2-oxoethylthio)acetamido)-2-(3-hydroxy-6-oxo-6H-xanthen-9-yl)benzoic acid], in test [1], the “staining of the tooth slice after NaCl and NaOH (Day 4)” value (“staining of the tooth slice … (Day 4)” below) is recorded as “still contained colourants; also recorded: staining”; the “kind of binding to carious tissue in infected teeth (conclusion)” value (“kind of binding to carious tissue” below) was “bind irreversibly”.

As for `Cc1c(CC(=O)NN)c(=O)oc2cc(N)c(S(=O)(=O)O)cc12` [Alexa 350], in test [1], the “staining of the tooth slice … (Day 4)” value is on record as “still contained colourants”; the “kind of binding to carious tissue” value is given as “bind irreversibly”.

Take `CC(=O)Nc1cc(S(=O)(=O)[O-])cc2cc(S(=O)(=O)[O-])c(/N=N/c3ccccc3)c(O)c12.[Na+].[Na+]` [Acid red 1, reference compound]: the “staining of the tooth slice after incubation with 1 M NaCl” value in test [1] (150 μm slices left over night in colour, rinsed with MQ water, NaCl 1 M over night) was “only little staining remained”. In addition, in test [1], the “staining of the tooth slice … (Day 4)” value was “no colouring of the slice treated with Acid red 1 could be detected using visible light and barely with microscope”; the “kind of binding to carious tissue” value is reported as “binds in a reversible way”. Moreover, in the test on carious dentin tissue [2], the “effect of rinsing on dye bonded to carious dentin tissue” value was “release of the dye bonded to the carious dentine tissue”.

In the case of “6-(2-carboxy-5-(hydrazinecarbonyl)phenyl)-1,2,2,10,10,11-hexamethyl-2,10-dihydro-1H-pyrano[3,2-g]diquinoline-11-ium-4,8-diyl)methanesulfonate [Alexa Fluor® 594]”, in test [1], the “staining of the tooth slice … (Day 4)” value is recorded as “still contained colourants”; the “kind of binding to carious tissue” value is listed as “bind irreversibly”. Besides, the “staining of the tooth slice … (Day 4)” value in test [1] (listed as Alexa Fluor 594®) is on record as “staining”. Moreover, in test [3], the “sensitivity of caries detection compared with tactile control by a dentist” value is “better and more sensitive method for detecting carious dentin tissue than tactile control”. Besides, in test [3] (15-50 mM aqueous solution, cavity obtained with Carisolv), the “staining of the cavity, first staining” value was “intense dark bluish colour”. Also, the “staining of the surface after second Carisolv treatment and excavation” value in test [3] (final attempt to stain) is given as “no staining took place”. The “staining of the surface after first Carisolv treatment and excavation” value in test [3] (surface judged free of caries by dentist's tactile control) is listed as “very slight staining at the center of the cavity”. In addition, the “staining of the surface after drilling until no staining visible” value in test [4] is recorded as “staining always took place after the drilling had been performed”.

`NNC(=O)NN1C(=O)c2cc(S(=O)(=O)O)cc3c(N)c(S(=O)(=O)O)cc(c23)C1=O` [Lucifer Yellow]: in the test with healthy dentin tissue [5], the “reaction with healthy dentin (TOF-SIMS)” value is given as “did not react with healthy dentin”. In addition, the “reaction with healthy dentin tissue” value in the test with healthy dentin tissue [6] was “no reaction takes place”. Further, in test [1], the “staining of the tooth slice … (Day 4)” value was “still contained colourants”; the “kind of binding to carious tissue” value was “bind irreversibly”. The “bonding to carious dentin tissue (TOF-SIMS)” value in the test with carious dentin tissue [7] (Lucifer Yellow 1.8 mM, 1 hour, washed with NaOH 0.5 M, positive spectra, repeated difference of 106 mass units) is listed as “covalently bound to the carious tissue”. Moreover, the “selectivity of reaction, carious versus healthy dentin tissue (TOF-SIMS)” value with carious dentin tissue [7] (concluded from TOF-SIMS spectra) is recorded as “selectively reacts with carious dentin tissue”. In addition, the “reaction with carious dentin tissue” value in the test on carious dentin tissue [8] (FTIR, Lucifer Yellow 13 mM aqueous, overnight, peak at 1740 cm−1 no longer present) was “reaction has taken place”. Moreover, in the test on carious dentin tissue [8] (concluded from FTIR of samples S1-S6), the “selectivity of reaction, carious versus healthy dentin tissue (FTIR)” value is “selectively reacts with carious dentin tissue”.

The values above are taken from patent US9642780B2, “Detection and removal of carious dentin tissue” (RLS Global AB, priority 2011, dated 2017).
